In PMC6112376, “Comprehensive Analyses and Prioritization of Tox21 10K Chemicals Affecting Mitochondrial Function by in-Depth Mechanistic Studies” (Environmental Health Perspectives, 2018):
Where a name gives a salt, the structure may show the parent alone. Read-outs that look alike come from different tables or passages of the source.

How the values were obtained:
HepG2 cells [1] = conditions: cited from earlier work
HepG2 cells [2] = experiment: cells; conditions: Homo sapiens; for IC50: HepG2, read-out: MMP assays IC50 (µM) HepG2; for Emax: HepG2, read-out: MMP assays efficacy (%) HepG2
rat primary hepatocytes = experiment: MMP assay in rat primary hepatocytes; conditions: for IC50: Rattus norvegicus, Hepatocyte, read-out: MMP assays IC50 (µM) Rat Hepatocytes; for MMP assays efficacy (%) Rat Hepatocytes / MMP assays IC50 (µM) Rat Hepatocytes: mean ± SD of three experiments
[3] = read-out: MMP assays IC50 (µM) qHTS-HepG2
[4] = read-out: MMP assays IC50 (µM), qHTS-HepG2

SMILES | MMP assays efficacy (%) qHTS-HepG2 (HepG2 cells [1]) [%] | IC50 (HepG2 cells [1]; [3]) [µM] | IC50 (HepG2 cells [2]) [µM] | Emax (HepG2 cells [2]) [%] | IC50 (rat primary hepatocytes) [µM] | MMP assays efficacy (%) Rat Hepatocytes (rat primary hepatocytes) | IC50 (HepG2 cells [1]; [4]) [µM] | MMP assays IC50 (µM) Rat Hepatocytes (rat primary hepatocytes)
Cc1ccc(C(C)(C)C)c(O)c1 [Compound 2-tert-Butyl-5-methylphenol] | -96±7 | 23.5 ± 2.85 | 5.01 | 95 | 40.1 ± 6.5 | -66±11% |  | 
Nc1cc(Cl)c(O)c(Cl)c1 [4-Amino-2,6-dichlorophenol] | -97±9 | 17.2 ± 13.4 | 15.8 | 120 | 29.6 ± 27.8 | -57±8% |  | 
c1ccc(CCCc2ccncc2)cc1 [4-(3-Phenylpropyl)pyridine] | -63±19 | 16.6 ± 6.74 | 14.1 | 46 | 13 ± 6.83 | -82±23% |  | 
Oc1ccc(OCc2ccccc2)cc1 [4-(Benzyloxyl)phenol] | -87±9 | 18.5 ± 1.51 | 7.4 | 93 | 9.04 ± 8.1 | -46±35% |  | 
Oc1ccc(C(c2ccc(O)cc2)(C(F)(F)F)C(F)(F)F)cc1 [Bisphenol AF] | -114±10 | 5.44 ± 1.42 | 5.01 | 102 | 37.3 ± 6.7 |  |  | 
C(=C(c1ccccc1)c1ccccc1)c1ccccc1 [Triphenylethylene] | -88±31 |  | 31.6 | 54 | 15.2 ± 11.5 | -74±30% | 35.7 ± 14.8 | 
CCc1oc2ccccc2c1C(=O)c1cc(I)c(O)c(I)c1 [Benziodarone] | -106±2 | 2.98 ± 0.63 | 4.35 | 97 | 1.76 ± 0.68 | -95±10% |  | 
CC1=NN(c2ccccc2)C(=O)C1 [Compound 1-Phenyl-3-methyl-5-pyrazolone] | -121±16 | 31.8 ± 4.28 | 28.2 | 82 | 25.8 ± 10.1 | -62±9% |  | 
O=C(Nc1ccc(Cl)cc1)Nc1ccc(Cl)c(C(F)(F)F)c1 [Cloflucarban] | -113±9 | 0.6 | 0.44 | 85 | 0.58 ± 0.05 | -95±5% |  | 
Oc1ccc(-c2ccccc2)cc1Cl [Compound 2-Chloro-4-phenylphenol] | -138±26 | 15.4 ± 7.86 | 15.8 | 99 | 31.8 ± 3.65 | -109±36% |  | 
Clc1ccc(Sc2cc(Cl)c(Cl)cc2Cl)cc1 [Tetrasul] | -77±0 |  | 2.51 | 72 |  | inactive | 1.77 ± 0.25 | inactive
CC(=O)Nc1ccc(S(=O)(=O)Nc2ccc([N+](=O)[O-])cc2)cc1 [Sulfanitran] | -54±11 |  | 17.3 | 67 | 19.5 ± 2.25 | -63±14% | 26.6 ± 8.77 | 
C=C1/C(=C\C=C2/CCC[C@]3(C)[C@@H]([C@H](C)/C=C/[C@@H](O)C4CC4)CC[C@@H]23)C[C@@H](O)C[C@@H]1O [Calcipotriene] | -63±12 | 26 ± 3.89 | 21.8 | 124 | 17.3 | -63±23% |  | 
Oc1cc(O)c(Cl)cc1Cl [4,6-Dichloro-1,3-benzenediol] | -100±10 | 9.55 ± 2.74 | 15.8 | 108 | 35.7 ± 5.79 | -37±3% |  | 
CCCCCOC(=O)c1ccc(O)cc1 [Pentylparaben] | -119±16 |  | 14.1 | 114 |  | inactive | 8.74 ± 1.65 | inactive
C[C@@H]1C[C@H]2[C@@H]3CCC4=CC(=O)C=C[C@]4(C)[C@@]3(Cl)[C@@H](O)C[C@]2(C)[C@@]1(OC(=O)c1ccco1)C(=O)CCl [Mometasone furoate] | -101±23 |  | 8.3 | 71 | 14 ± 1.14 | -21±0% | 11.8 ± 0.8 | 
CCc1ccc(O)c(C(C)(C)C)c1 [Compound 2-tert-Butyl-4-ethylphenol] | -103±6 | 11.3 ± 2.6 | 15.8 | 95 |  | inactive |  | inactive
O=C1OC(=O)c2cccc3cccc1c23 [1H,3H-Naphtho(1,8-cd)pyran-1,3-dione] | -51±8 | 3.89 ± 1.12 | 7.94 | 63 |  | inactive |  | inactive

SMILES | MMP assays efficacy (%) qHTS-HepG2 (HepG2 cells [1]) [%] | IC50 (HepG2 cells [1]; [3]) [µM] | IC50 (HepG2 cells [2]) [µM] | Emax (HepG2 cells [2]) [%] | IC50 (rat primary hepatocytes) [µM] | MMP assays efficacy (%) Rat Hepatocytes (rat primary hepatocytes) | IC50 (HepG2 cells [1]; [4]) [µM] | MMP assays IC50 (µM) Rat Hepatocytes (rat primary hepatocytes)
C=C1CC[C@H](O)C/C1=C/C=C1\CCC[C@]2(C)[C@@H]([C@H](C)CCCC(C)(C)O)CC[C@@H]12 [Calcifediol] | -109±10 | 5.82 ± 0.47 | 12.3 | 115 | 14.2 ± 9.57 | -66±31% |  | 
Oc1cccc(Nc2ccccc2)c1 [Compound 3-Hydroxy-N-phenylaniline] | -110±13 | 28.5 ± 6.04 | 35.5 | 110 |  | inactive |  | inactive
CCC(=O)Oc1ccc(/C(CC)=C(\CC)c2ccc(OC(=O)CC)cc2)cc1 [Diethylstilbestrol dipropionate] | -112±3 | 10.5 ± 2.66 | 7.08 | 101 | 49.3 ± 19.5 | -38±22% |  | 
CCc1c(C(=O)NN2CCCCC2)nn(-c2ccc(Cl)cc2Cl)c1-c1ccc(Br)cc1 [Surinabant] | -97±6 |  | 19.9 | 94 | 34.3 ± 22.5 | -81±29% | 33.1 ± 16.6 | 
Cc1cc(O)cc(C)c1Cl [4-Chloro-3,5-dimethylphenol] | -122±6 | 21 | 25.1 | 106 |  | inactive |  | inactive
Oc1ccc(Cl)c2cccnc12 [Cloxyquin] | -58±10 | 16.8 ± 5.94 | 15.5 | 79 |  | inactive |  | inactive
CC(C)(C)c1cc(/C=C2\SC(N)=NC2=O)cc(C(C)(C)C)c1O [Darbufelone mesylate] | -110±13 | 11.7 ± 2.02 | 5.62 | 102 | 7.15 ± 5.41 | -105±22% |  | 
CCCCCCCCCCCCCC[n+]1ccccc1 [Tetradecylpyridinium bromide] | -76±21 |  | 17.8 | 102 | 33.5 ± 2.73 | -99±17% | 22.5 ± 4.1 | 
O=C1c2ccccc2C(=O)N1SC(Cl)(Cl)Cl [Folpet] | -107±6 |  | 14.1 | 100 | 33.7 ± 20.2 |  | 8.25 ± 0.54 | 
CC(C)(C)c1ccc(O)c(O)c1 [Compound 4-tert-Butylcatechol] | -103±20 | 34.3 ± 15 | 31.6 | 90 |  | inactive |  | inactive
COc1ccc(/C=C/C(=O)c2ccc(OC)cc2OC)cc1 [Metochalcone] | -72±12 |  | 39.8 | 119 | 25.5 ± 18.2 | -82±19% | 18.2 ± 10.1 | 
CCCCCCCCCCCCOC(=O)c1cc(O)c(O)c(O)c1 [Dodecyl gallate] | -99±8 | 4.75 ± 1.81 | 7.94 | 100 | 48.7 ± 8.3 | -65±17% |  | 
COc1ccc(C(=O)c2ccc(OC)cc2O)c(O)c1 | -95±11 | 7.75 ± 1.8 | 12.6 | 109 | 29.8 ± 13.8 | -58±4% |  | 
COc1cc(C(=O)NS(=O)(=O)c2ccccc2C)ccc1Cc1cn(C)c2ccc(NC(=O)OC3CCCC3)cc12 [Zafirlukast] | -108±3 |  | 13.8 | 105 | 3.43 ± 1.47 | -114±33% | 10.6 ± 1.22 | 
COc1ccc(-c2coc3cc(O)ccc3c2=O)cc1 [Formononetin] | -85±16 |  | 17.8 | 80 | 13.2 ± 16.2 | -74±27% | 13.2 ± 4.88 | 
O=C1c2ccccc2C(=O)c2c(O)ccc(O)c21 [1,4-Dihydroxyanthracene-9,10-dione] | -103±19 | 5.24 ± 3.43 | 8.91 | 41 | 4.81 ± 8.07 | -25±3% |  | 
Cc1cccc(Nc2ccccc2)c1 [Compound 3-Methyl-N-phenylaniline] | -93±25 | 48.6 ± 5.61 | 28.2 | 66 | 35.5 | -74±25% |  | 
